What was measured:
rats [1] = test: Carrageenan-induced thermal hyperalgesia, VR1 antagonist and morphine in combination; type: in vivo, rat
Procedure: Briefly, a constant radiant heat source is applied the animals' plantar surface of either hind paw. The time to withdrawal (ie., the amount of time that heat is applied before the animal moves its paw), otherwise described as thermal threshold or latency, determines the animal's hind paw sensitivity to heat.
Rats received oral administration of 0.1 mg/kg VR1 antagonist ([2-(2,6-dimethyl-morpholin-4-ylmethyl)-7-(3-trifluoromethyl-pyridin-2-yl)-pyrido[3,2-d]pyrimidin-4-yl]-(4-trifluoromethyl-phenyl)-amine (cis)) or vehicle alone in a solution of 2% vitamin E (d-alpha tocopheryl polyethylene glycol 1000 succinate) in distilled water. One hour later, 100 μL of 1% carrageenan was injected in the intraplantar aspect of the left paw. 2 hours after carrageenan injection, the rats were treated subcutaneously with saline or 1 mg/kg of morphine sulfate in saline. One hour after subcutaneous treatment, each rat's thermal withdrawal latency (i.e., the amount of time that heat is applied before the animal moves its paw) was determined. This latency was compared with the latency determined for each rat on the day prior to the experiment (baseline day).
The data are presented in FIG. 4, expressed as a decrease in paw withdrawal latency (latency on test day—latency on baseline day).

rats [2] = test: CFA-induced chronic inflammatory pain, mechanical allodynia (von Frey), tolerance to morphine; type: in vivo, rat; conditions: once per day for four days; for withdrawal threshold from a von Frey filament: Treatment Day 4, 1 hour after treatment, ANOVA and Fisher's PLSD
From the text: A positive allodynic response consists of lifting the affected paw followed immediately by licking or shaking of the paw.

[3] = oral VR1 antagonist 0.3 mg/kg and subcutaneous morphine sulfate 3 mg/kg

Structure (SMILES)	decrease in thermal paw withdrawal latency (carrageenan-induced thermal hyperalgesia) (rats [1]; VR1 antagonist alone, 0.1 mg/kg oral, with s.c. saline, ANOVA, Fisher's PLSD)	decrease in thermal paw withdrawal latency (carrageenan-induced thermal hyperalgesia) (rats [1]; coadministration of 1 mg/kg morphine s.c. with VR1 antagonist 0.1 mg/kg oral)	tolerance to repeated morphine dosing (rats [2]; [3])	withdrawal threshold from a von Frey filament (rats [2]; [3])	decrease in thermal paw withdrawal latency (carrageenan-induced thermal hyperalgesia) (rats [1]; 1 mg/kg morphine s.c. with oral vehicle, 1 hour after subcutaneous treatment, ANOVA, Fisher's PLSD)	withdrawal threshold from a von Frey filament (rats [2]; oral vehicle and subcutaneous morphine sulfate 3 mg/kg)
C[C@@H]1CN(Cc2nc(Nc3ccc(C(F)(F)F)cc3)c3ncc(-c4ncccc4C(F)(F)F)cc3n2)C[C@H](C)O1 [VR1 antagonist, [2-(2,6-dimethyl-morpholin-4-ylmethyl)-7-(3-trifluoromethyl-pyridin-2-yl)-pyrido[3,2-d]pyrimidin-4-yl]-(4-trifluoromethyl-phenyl)-amine (cis)]	statistically significant effect	greatest effect	prevents tolerance to repeated morphine dosing	statistically significantly higher withdrawal thresholds than any other treatment group	–	–
CN1CC[C@]23c4c5ccc(O)c4O[C@H]2[C@@H](O)C=C[C@H]3[C@H]1C5 [morphine, reference compound]	–	–	–	–	ineffective in reversing carrageenan-induced thermal hyperalgesia	not significantly different from oral vehicle and subcutaneous vehicle controls

Reference: patent publication US20040142958A1, “Combination therapy for the treatment of pain” (Neurogen Corporation, priority 2002, published 2004)
